Earlier results in patent publication US12409131B2, “Transdermal delivery of dronabinol” (Pike Therapeutics USA, Inc., priority 2019, dated 2025).

Legend:
[1] = in 96 hrs through human cadaver skin, U.S. Pat. No. 8,449,908

Compound: CCCCCc1cc(O)c2c(c1)OC(C)(C)[C@@H]1CCC(C)=C[C@@H]21 (relative stereo) [dronabinol, (6aR-trans)-6a,7,8,10a-tetrahydro-6,6,9-trimethyl-3-pentyl-6H-dibenzo[b,d]pyran-1-ol]
- cumulative amount delivered [1]: 10000 ng
- Oral bioavailability: 10-20%
